This note sets out measurements from the METLIN SMRT retention time set (Domingo-Almenara et al. 2019).

The data set can be described thus: gradient 5% acetonitrile 3 min, to 50% in 2 min, to 85% in 15 min, held 3 min, 100 µL/min. The following applies: column: Zorbax Extend-C18 2.1 x 50 mm; eluents: water / acetonitrile, 0.1% formic acid. Summed up: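 Mixtures of ~100 pure standards were chromatographed on a Zorbax Extend-C18 column (2.1 × 50 mm, 1.8 μm) at 100 μL/min using water and acetonitrile, each with 0.1% formic acid. Detection used a quadrupole time-of-flight mass spectrometer in positive and negative ionization mode, and data collection spanned 3 months. Retention time was obtained from adduct peaks picked computationally and each checked manually.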
The compound `CC(C)c1cc(C(=O)Nc2ccc(Cl)cc2)nn1C1CCS(=O)(=O)C1` (centres undefined) yielded an RP-LC retention time of 936 s. Next, `CCOc1ccc(NC(=O)c2cccn2-c2cccnc2)cc1`: 733 s; `CC(C)CN1CCN(Cc2nc(-c3ccc(N4CCCC(C)C4)nc3)no2)CC1` (centres undefined): 645 s. On to `CSc1ccc(CNC(=O)c2cc3ccncc3n2C)cc1`, for which the RP-LC retention time stood at 637 s. The value for `COc1ccc(Cl)cc1CC1C(=O)Nc2ccccc21` (centres undefined) was 921 s; that for `Cc1ccc(N2C(=O)CN(S(=O)(=O)c3ccccc3)CC2(C)C(=O)NC2CCCCC2)cc1` (centres undefined) was 1000 s; that for `Cc1ccc(-c2ccc3nnc(CCC(=O)NCCCOC(C)C)n3n2)cc1C` was 795 s. Next, `CC(C)N1C(=O)Cc2ccccc2C1C(=O)N1CCN(c2ccccc2)CC1` (centres undefined): 855 s; `Cc1cc2c(c(=O)n(-c3ccc(F)cc3)c(=O)n2CC(=O)Nc2ccccc2C(F)(F)F)n1C`: 880 s.

`COC(=O)c1ccc2c(=O)n(-c3ccc(C)c(F)c3)c(N3CCSC3)nc2c1` yielded an RP-LC retention time of 1150 s. Next, `O=C(c1ccc2cc[nH]c2c1)N1CCN(c2cc(-c3cccs3)[nH]n2)CC1`: 747 s; `CCOC(=O)Cc1ccc(NC(=O)N2CCC(n3c(C)nc4cccnc43)C2)cc1` (centres undefined): 598 s; `O=c1ccn(-c2ccc(Cl)cc2)nc1-c1nc(-c2ccccc2Cl)no1`: 963 s. The value for `COc1ccc(Cl)cc1NC(=O)CSc1nnc(-c2ccco2)n1-n1cccc1` was 885 s. The value for `Cc1cc(Cl)ccc1S(=O)(=O)N(C)C1CCc2nn(CC3CC3)c(=O)n2CC1` (centres undefined) was 772 s. For the compound `O=C(Nc1cccc(Cl)c1)C1CCCN1S(=O)(=O)c1cccc2nsnc12` (centres undefined), the RP-LC retention time is 949 s. The value for `CSc1ccc(CNC(=O)COc2cc(C)nc(N3CCN(c4ccccc4)CC3)n2)cc1` was 857 s; that for `Cc1ccc(NC(=O)Cn2c(C)nc3c(sc4nc(-c5ccccc5)ccc43)c2=O)c(Cl)c1` was 1140 s. The compound `CCOc1cc(CN2CCCC2c2cc(C)no2)ccc1OCC(N)=O` (centres undefined) came in with an RP-LC retention time of 580 s.

Take `COc1ccc(C(C)NC(=O)c2cn3nc(Cl)ccc3n2)cc1OC` (centres undefined): the RP-LC retention time stood at 755 s.

`COc1ccc(C(=O)N2CCC3(CC2)NC(=O)c2cc(Cl)ccc2N3C)cc1` displayed an RP-LC retention time of 768 s. Next, `O=C1CCCC(=O)N1CCS(=O)(=O)N1CCC(c2nnc(-c3ccco3)s2)CC1`: 671 s. Next, `O=C(c1ccc2ccnc(N3CCN(c4ccccc4)CC3)c2c1)N1CCC(N2CCCCC2)CC1`: 589 s. The value for `COc1ccccc1N1CCN(c2ncc(C(=O)O)c(C(C)C)n2)CC1` was 911 s; that for `CC(C)c1nnc(-c2ccc(S(=O)(=O)NC3CCCCCC3)o2)o1` was 985 s; that for `O=C(Cn1ccc2ccn(Cc3cccnc3)c2c1=O)NC1CCCC1` was 605 s. As to `COCCC1CCN(C(=O)CN(C)C(=O)c2cnccn2)CC1`, the RP-LC retention time turned out to be 580 s. As for `Cc1cccc(N2CCN(C(=O)c3cc4c(=O)n(C)ccc4n3C)CC2)c1C`, the RP-LC retention time came out at 818 s. `O=C1CC(C(=O)N2CCc3ccccc3C2)CN1CCc1c[nH]c2ccc(Cl)cc12` (centres undefined) gave an RP-LC retention time of 879 s. Next, `CNC(=O)c1cnn(-c2cccc(F)c2)c1-n1cccc1`: 777 s; `Cc1ccc2c(c1)C(=O)NC1(CCN(C(=O)c3ccccc3)CC1)N2C`: 748 s; `CCCOCCOC(=O)C1=C(C)NC2=C(C(=O)CCC2)C1c1ccc(OC)cc1OC` (centres undefined): 792 s. Next, `O=C(Nc1ccc2c(c1)OCO2)C1CCCN(S(=O)(=O)Cc2ccc(Cl)cc2)C1` (centres undefined): 964 s. The value for `CCN(CC)S(=O)(=O)c1ccc2c(c1)N(CC(=O)NCc1ccc(C)cc1)C(=O)C1CCCCN21` (centres undefined) was 1030 s. With `CC(=O)N(CCC1(C(C)C)CCOC(C)(C)C1)Cc1ccccc1` (centres undefined), the RP-LC retention time was 1000 s. The value for `CCN1CCN(c2cc(C(=O)O)c3cc(NS(=O)(=O)c4ccc(C)cc4C)ccc3n2)CC1` was 638 s. `CC(=O)Nc1ccc2c(c1)CN(C(=O)c1ccc(F)cc1F)C(C(=O)N(C)C)C2` (centres undefined) displayed an RP-LC retention time of 661 s. Next, `Cn1cccc1CN1CCCC(COc2ccccc2C(=O)N2CCCC2)C1` (centres undefined): 644 s.

Turning to `CCSc1nc2ccc(NS(=O)(=O)c3ccc(F)c(F)c3)cc2s1`, the RP-LC retention time stood at 1070 s. The value for `Cc1nn(CC(=O)NCCCN2CCCCC2)c(=O)c2nc(-c3ccccc3)sc12` was 627 s. The value for `COC(=O)CNC(c1ccccc1)c1cc(C)ccc1NS(=O)(=O)c1ccc(C)cc1` (centres undefined) was 904 s. Next, `Cc1cnn(CC(=O)N2CCC3(CCC3O)CC2)c1` (centres undefined): 607 s. Consider `O=C(NCc1ccccc1)C1=Cc2ccccc2OC=C1`, for which the RP-LC retention time came out at 933 s.

In the case of `Cc1ccc2c(c1)C(=O)NC1(CCN(C(=O)Cc3ccccc3C)CC1)N2C`, the RP-LC retention time worked out at 820 s. Next, `COc1c(C(=O)Nc2ccc(N3CCOCC3)cc2)sc2ccc(Cl)cc12`: 1110 s. `O=C(Cn1cccc(-c2nc(-c3ccc(F)cc3)no2)c1=O)Nc1ccc(F)cc1F`: the RP-LC retention time was 875 s. Next, `COc1ccc(-c2nc(N(C)C3CCCCC3)c3ccccc3n2)cc1`: 918 s. The value for `CCCn1cc(C(=O)NCCN(C)C)c(S(=O)(=O)N2CCN(c3ccc(Cl)cc3)CC2)n1` was 730 s; that for `O=c1cc(CN2CCN(c3ncccn3)CC2)nc2sccn12` was 542 s; that for `Cc1ccc(-c2cc3c(=O)n(Cc4nc(-c5ccccc5)no4)ncn3n2)c(C)c1` was 1200 s. The value for `O=C1CCCc2cc(S(=O)(=O)N3CCCN(Cc4ccccc4Cl)C3)ccc2N1` was 750 s; that for `COCCn1c(C)cc(O)c(C(c2ccc(Cl)cc2)N2CCC(C)CC2)c1=O` (centres undefined) was 644 s. In the case of `O=C(CCc1ccc2nc[nH]c2c1)Nc1ccc2c(c1)OCCO2`, the RP-LC retention time is 591 s. The value for `CCCNC(=O)CCc1c(C)n(CC)c2nc(-c3ccccc3)nn2c1=O` was 697 s. The value for `COC(=O)C(C)Sc1ncnc2c1oc1ccccc12` (centres undefined) was 906 s. The value for `CC(=O)N1CCc2cc(C(=O)NCc3ccccc3)ccc21` was 736 s.

As to `Cc1ccc(C2=NC3(CCN(C(=O)c4ccc5[nH]ccc5c4)CC3)ON2)cc1`, the RP-LC retention time came out at 790 s.

With `O=C(NC1CC1)C1CCCN(S(=O)(=O)c2c[nH]c(C(=O)N3CCCC3)c2)C1` (centres undefined), the RP-LC retention time worked out at 627 s. The value for `CC1(C(=O)NCc2ccc(F)cc2)CCCN(C(=O)Nc2cccc(Br)c2)C1` (centres undefined) was 1030 s; that for `Cc1c(S(=O)(=O)NCc2cccs2)c(C)n(C)c1-c1nnc(C2CCC2)o1` was 893 s; that for `CCOc1ccccc1N1CCN(C(=O)CSc2nccnc2Oc2ccccc2C)CC1` was 1120 s. The value for `O=C(COc1ccc(Cl)cc1)Nc1nc2ccc([N+](=O)[O-])cc2s1` was 974 s. Next, `COCCc1noc(COC2CCCN(C(=O)c3ccoc3)C2)n1` (centres undefined): 668 s; `CCOC(=O)c1ccc(NC(=O)N2CCCC2c2cc(C)on2)cc1` (centres undefined): 809 s.

Compound `C=CCNC(=O)N1CCCN(C2=NS(=O)(=O)C(c3ccccc3)=C2C)CC1` yielded an RP-LC retention time of 713 s.

In turn, `CCC(C(=O)NCc1ccccc1)n1cnc2nc3c(cc2c1=O)CCCC3` (centres undefined) had an RP-LC retention time of 774 s.

In turn, `Cc1ncsc1C1N(C2CCN(C(=O)C3CC3)CC2)C(=O)C12CCCC2` (centres undefined) gave an RP-LC retention time of 696 s. The value for `Cc1cccc(-c2nc(Cn3nnc(-c4nc(-c5ccc6c(c5)OCO6)no4)c3C)c(C)o2)c1` was 1240 s. Turning to `O=S(=O)(NCC(c1ccccc1)S(=O)(=O)c1cccs1)c1cccs1` (centres undefined), the RP-LC retention time came to 878 s. The value for `COc1ccc(-c2noc(Cn3ccnc3)n2)cc1` was 601 s. Compound `CCn1c(=O)cc(SCC(=O)N2CCN(c3ccccn3)CC2)c2ccccc21` had an RP-LC retention time of 607 s. Next, `O=C(NCCCc1ccccc1)c1nnc(-c2ccc(S(=O)(=O)N3CCCC3)cc2)o1`: 971 s.

For the compound `CCn1cc(C(=O)Nc2cccc(C(C)=O)c2)c2nn(-c3ccccc3)c(=O)c-2c1`, the RP-LC retention time turned out to be 808 s. The value for `Cc1ccc(NC(=O)N2CCC(c3nc(CCNC(=O)C(C)C)cs3)CC2)cc1` was 750 s. Compound `CCN1C(=O)c2cccnc2Sc2cc(NC(=O)c3ccc(F)c(F)c3)ccc21` gave an RP-LC retention time of 874 s. Next, `COc1ccc(CC(=O)N2CCC3(CC2)NC(=O)c2ccc(Cl)cc2N3)cc1`: 787 s; `O=C(COc1ccccc1)NCc1c(-c2ccccc2)nc2n1CCS2`: 678 s; `O=C(Nc1ccccc1)C1CCCN(S(=O)(=O)c2cc(-c3noc(C4CCC4)n3)cs2)C1` (centres undefined): 1140 s. Compound `CCOc1ccc2ncc(S(=O)(=O)c3ccc(C)c(C)c3)c(N3CCN(C)CC3)c2c1` yielded an RP-LC retention time of 658 s.
